Measured values reported in article PMC2709226 (Plant Molecular Biology, 2008).

Experiments:
[1] = target: acINV (Allium cepa, UniProt O81083, W440Y); assay: biochemical
[2] = target: acINV (Allium cepa, UniProt O81083); assay: biochemical

Structure (SMILES): OC[C@H]1O[C@@](CO)(O[C@H]2O[C@H](CO)[C@@H](O)[C@H](O)[C@H]2O)[C@@H](O)[C@@H]1O [sucrose]
- Km [1]: 8.8 ± 2.4 mM
- Km [2]: 5.8 ± 1.9 mM
